In PMC7464201, “Synthesis and Cytotoxic Activity of Novel C-23-Modified Asiatic Acid Derivatives” (Molecules, 2020):
Where two headings read alike, the source gives them in different places.

Key:
[1] = test system: human colon (HCT-116) cancer cell line; assay: MTT cytotoxicity assay, HCT116; assay type: cell-based; details: for IC50: Homo sapiens, HCT-116, MTT, 72 h, six concentrations, mean ± SD of three independent experiments
Description: (§1) To establish a SAR of the C-3 (R2) and C-23 (R1) of the AA derivatives, new compounds were subjected to MTT assays to evaluate their in-vitro antiproliferative activities against ovarian (SKOV-3) and colon (HCT-116) cancer cell lines, the IC50 values (the concentration that inhibits 50% of cell growth) of which are summarized in Table 1. Doxorubicin was used as the positive drug.
(§2) HCT116, SKOV-3, A549, A2780, HepG2, HL-60 and MCF-7 cells were incubated in DMEM with 10% heat-inactivated FBS in a humidified atmosphere of 5.0% CO2 at 37 °C. The in-vitro cytotoxicity of AA derivatives was determined using MTT assay. A 100-μL volume of culture medium at a concentration of 3 × 10^4 cell/mL was added to 96-well plate wells, which were maintained in a humidified atmosphere of 5.0% CO2 at 37 °C. After 24 h, 10 μL solution of AA derivatives and doxorubicin dissolved in DMSO and phophate buffered saline (PBS) and then diluted with DMEM under a concentration gradient, was added in the wells for final concentrations of 100, 10, 1, 0.1, 0.01, 0.001 μM of compounds in HCT116 and SKOV-3 cells and 125, 25, 5, 1, 0.2, 0.04 μM in A549, A2780, HepG2, HL-60 and MCF-7 cells. After 72 h incubation in a humidified atmosphere of 5.0% CO2 at 37 °C, 20 μl MTT solution (5 mg/mL) was added into each well and the cells were incubated. After 4 h, 100 μL HCl aqueous solution (0.01 M) with 10% SDS and 5% isobutanol was added into each well to dissolve the precipitated formazan and the absorbance was read at 570 nm on Thermo Scientific Varioskan Flash plate reader. All IC50 values were averaged from three independent experiments.

[2] = test system: human ovarian (SKOV-3) cancer cell line; assay: MTT cytotoxicity assay, SKOV-3; assay type: cell-based; details: Homo sapiens, SK-OV-3; MTT, 72 h, six concentrations, mean ± SD of three independent experiments
Description: as §1, §2

A2780 cells [3] = test system: A2780 cells; design: method as in PMID 30278332; details: literature value for AA; cited from earlier work
HepG2 cells [4] = test system: HepG2 cells; design: method as in PMID 31057738; details: literature value for AA; cited from earlier work
[5] = test system: human normal cell line (HUVEC); design: method as in PMID 25151580; details: literature value for AA; cited from earlier work
MCF-7 cells [6] = test system: MCF-7 cells; design: method as in PMID 26974379; details: literature value for AA; cited from earlier work
A549 cells [7] = test system: A549 cells; design: method as in PMID 31057738; details: literature value for AA; cited from earlier work
HepG2 cells [8] = assay: MTT cytotoxicity assay, HepG2; assay type: cell-based; details: Homo sapiens, 72 h, mean ± SD of three independent experiments
Description: as §2

A2780 cells [9] = assay: MTT cytotoxicity assay, A2780; assay type: cell-based; details: Homo sapiens, 72 h, mean ± SD of three independent experiments
Description: as §2

[10] = test system: human normal cell line (HUVEC); assay: CCK-8 cytotoxicity assay, human normal cell line HUVEC; assay type: cell-based; details: for cytotoxic effect on HUVEC cell viability: CCK-8, concentrations of 125, 25, 5, 1, 0.2, 0.04 μM, 72 h; for IC50: HUVEC, CCK-8, 72 h, human normal cell line
Description: Additionally, the cytotoxic activities of compounds 10, 14j and 14k were evaluated against one human normal cell line (HUVEC) using CCK-8 assay (Table 3).
HUVEC cell lines were incubated in DMEM with 10% heat-inactivated FBS in a humidified atmosphere of 5.0% CO2 at 37 °C. The in-vitro cytotoxicity of AA derivatives was determined using CCK-8. A 100-μL volume of culture medium at a concentration of 3 × 10^4 cell/mL was added to 96-well plate wells, and these were maintained in a humidified atmosphere of 5.0% CO2 at 37 °C. After 24 h, 10 μL solution of AA derivatives dissolved in DMSO and PBS and then diluted with DMEM under a concentration gradient was added to the wells for final concentrations of 125, 25, 5, 1, 0.2, 0.04 μM. After 72 h incubation in a humidified atmosphere of 5.0% CO2 at 37 °C, 10 μl CCK-8 solution was added into each well and the cells were incubated for another 1 h, and the absorbance was read at 450 nm. All cell viability levels were averaged from three independent experiments.

A549 cells [11] = assay: MTT cytotoxicity assay, A549; assay type: cell-based; details: Homo sapiens, 72 h, mean ± SD of three independent experiments
Description: as §2

MCF-7 cells [12] = assay: MTT cytotoxicity assay, MCF-7; assay type: cell-based; details: Homo sapiens, MCF7, 72 h, mean ± SD of three independent experiments
Description: as §2

HL-60 cells = assay: MTT cytotoxicity assay, HL-60; assay type: cell-based; details: Homo sapiens, 72 h, mean ± SD of three independent experiments
Description: as §2

[13] = test system: human ovarian cancer cells (A2780); design: method as in PMID 27416552, PMID 24268794; details: read-out: EC50 against human ovarian cancer cells (A2780); cited from earlier work

SMILES | IC50 [1] | IC50 [2] | IC50 (HepG2 cells [8]) | IC50 (A2780 cells [9]) | cytotoxic effect on HUVEC cell viability [10] | IC50 [10] | IC50 (A549 cells [11]) | IC50 (MCF-7 cells [12]) | IC50 (HL-60 cells) | also measured
C[C@H]1[C@H](C)CC[C@]2(C(=O)O)CC[C@]3(C)C(=CC[C@@H]4[C@@]5(C)C[C@@H](O)[C@H](O)[C@@](C)(CO)[C@@H]5CC[C@]43C)[C@H]12 [AA, 2α,3β,23-trihydroxyurs-12-ene-28-oic acid] | 24.6 ± 3.26 µM | 20.5 ± 4.06 µM |  |  |  |  |  |  |  | IC50 (A2780 cells [3]): 28.2 ± 0.3 µM; IC50 (HepG2 cells [4]): 35.4 ± 1.47 µM; IC50 [5]: > 100 µM; IC50 (MCF-7 cells [6]): 68.5 ± 2.5 µM; IC50 (A549 cells [7]): 41 ± 0.87 µM
COC(=O)[C@@]1(C)[C@@H]2CC[C@]3(C)[C@H](CC=C4[C@@H]5[C@@H](C)[C@H](C)CC[C@]5(C(=O)NCc5ccccc5)CC[C@]43C)[C@@]2(C)C[C@@H](OC)[C@@H]1OC(C)=O [Compound 10, α-Methoxy-3β-Acetoxy-Urs-12-Ene-28-Benzylamide-23-Methyl Ester] | 1.08 ± 0.66 µM |  | 1.43 ± 0.32 µM | 1.28 ± 0.32 µM | no cytotoxic effect | > 125 µM | > 125 µM | 3.99 ± 1.21 µM | 0.47 ± 0.08 µM | fold more active than AA against HCT116 cell line ([1]; relative to AA): 23 fold
CO[C@@H]1C[C@@]2(C)[C@@H](CC[C@]3(C)[C@@H]2CC=C2[C@@H]4[C@@H](C)[C@H](C)CC[C@]4(C(=O)NCc4ccccc4)CC[C@]23C)[C@](C)(C(=O)N2CCN(C)CC2)[C@H]1O [Compound 13k, α-Methoxy-3β-Hydroxy-Urs-12-Ene-28-Benzylamide-23-(4-Methyl-1-Piperazinyl)-Amide] |  |  | 2.22 ± 0.68 µM | 13 ± 1.18 µM |  |  | 5.7 ± 0.58 µM | 2.85 ± 0.25 µM | 10.7 ± 2.08 µM | 
CCOC(=O)CCCNC(=O)[C@@]1(C)[C@@H]2CC[C@]3(C)[C@H](CC=C4[C@@H]5[C@@H](C)[C@H](C)CC[C@]5(C(=O)NCc5ccccc5)CC[C@]43C)[C@@]2(C)C[C@@H](OC)[C@@H]1OC(C)=O [Compound 14i, N-(2α-Methoxy-3β-Acetoxy-Urs-12-Ene-28-Benzylamide-23-Oyl)-4-Aminobutyric Ethyl Ester] | > 100 µM | > 100 µM |  |  |  |  |  |  |  | 
CO[C@@H]1C[C@@]2(C)[C@@H](CC[C@]3(C)[C@@H]2CC=C2[C@@H]4[C@@H](C)[C@H](C)CC[C@]4(C(=O)NCc4ccccc4)CC[C@]23C)[C@](C)(C(=O)N(C)C)[C@H]1OC(C)=O [Compound 14j, α-Methoxy-3β-Acetoxy-Urs-12-Ene-28-Benzyl Amide-23-Dimethylamide] | 1.83 ± 0.91 µM |  | 3.77 ± 1.22 µM | 2.24 ± 0.52 µM | no cytotoxic effect | > 125 µM | 6.72 ± 0.64 µM | 5.89 ± 1.33 µM | 3.01 ± 0.44 µM | 
CO[C@@H]1C[C@@]2(C)[C@@H](CC[C@]3(C)[C@@H]2CC=C2[C@@H]4[C@@H](C)[C@H](C)CC[C@]4(C(=O)NCc4ccccc4)CC[C@]23C)[C@](C)(C(=O)N2CCN(C)CC2)[C@H]1OC(C)=O [Compound 14k, α-Methoxy-3β-Acetoxy-Urs-12-Ene-28-Benzylamide-23-(4-Methyl-1-Piperazinyl)-Amide] |  |  | 2.84 ± 0.46 µM | 4.31 ± 0.58 µM | no cytotoxic effect | > 125 µM | 4.04 ± 0.51 µM | 1.78 ± 0.38 µM | 3.36 ± 0.66 µM | 
COc1cccc2c1C(=O)c1c(O)c3c(c(O)c1C2=O)C[C@@](O)(C(=O)CO)C[C@@H]3O[C@H]1C[C@H](N)[C@H](O)[C@H](C)O1 [Doxorubicin, reference compound] | 0.03 ± 0.02 µM | 0.08 ± 0.01 µM |  |  |  |  |  |  |  | 
CC(=O)O[C@@H]1C[C@]2(C)[C@H]3CC=C4[C@@H]5CC(C)(C)CC[C@]5(C(=O)NCc5ccccc5)CC[C@@]4(C)[C@]3(C)CC[C@H]2C(C)(C)[C@H]1OC(C)=O [EM2] |  |  |  |  |  |  |  |  |  | EC50 [13]: 0.5 µM
